{
  "source": "patent US20260000658A1",
  "about": "“METHODS FOR THE TREATMENT OF PROLIFERATIVE GLOMERULONEPHRITIS” (INSTITUT NATIONAL DE LA SANTÉ ET DE LA RECHERCHE MÉDICALE, priority 2022, published 2026)",
  "type_in_all_cases": "in vivo, mouse",
  "key": {"[1]": {"test_system": "NZBWF1/J mice", "test": "Uninephrectomized NZBWF1/J mice (lupus nephritis model), vehicle or alpelisib for 4 weeks", "text": "(§1) A. Urinary albumin to creatinine ratio B. Blood urea nitrogen level, C. kidney to body weight ratio of NZBWF1/J mice at the time of sacrifice (4 weeks following either sham operation or uninephrectomy followed by the treatment either with vehicle or alpelisib) (n=5-15 mice per group). D. Representative P-S6RP/Nephrin coimmunofluorescence staining of kidneys from 4 weeks following either sham operation or uninephrectomy followed by the treatment either with vehicle or alpelisib) (n=4-6 mice per group). Scale bar […]. E. P-S6RP mean intensity quantification (n=4-6 mice per group). F. Col3a, G. Col1a, and H. Tnfα quantification of qRT-PCR analysis in the kidney cortex of kidneys at the time of sacrifice (4 weeks following either sham operation or uninephrectomy followed by the treatment either with vehicle or alpelisib) (n=5-15 mice per group). I. Kaplan-Meier survival curves of MRL-lpr mice treated either with vehicle or alpelisib (n=13-14 mice per group). J. Urinary albumin to creatinine ratio of MRL-lpr mice treated either with vehicle or alpelisib from 8 weeks old till death (n=13-14 mice per group). K. Vehicle treated mice, and L. alpelisib treated mice of the trajectory of urinary albumin to creatinine ratio of MRL-lpr mice (n=13-14 mice per group).\n(§2) For the uninephrectomy experiments, the right kidneys were removed under anesthesia. For the medical treatment of mice, 50 mg kg −1 alpelisib (MedChem Tronica) in 1% carboxymethylcellulose (Sigma Aldrich)+0.5% Tween (Sigma Aldrich) or vehicle (1% carboxymethylcellulose+0.5% Tween) was administered by oral gavage daily for the indicated periods of time. Blood and urines were obtained at the indicated times. At euthanasia, blood, urines, kidneys were harvested. In some experiments, spleens, hearts, and bone marrow (BM) in femurs and tibias were harvested as well. Tissues were fixed in 4% paraformaldehyde and paraffin embedded for immunohistochemical analysis, snap-frozen in Optimal Cutting Temperature (OCT), or stored at −80° C. for mRNA or protein analysis.\n(§3) Mouse blood counts were analyzed using a hematology analyzer (ProCyte Dx; IDEXX Laboratories). Mouse serum creatinine, blood urea nitrogen, urinary albumin, and urinary creatinine were evaluated using an AU5800 (Beckman Coulter) autoanalyzer. Serum anti-dsDNA measurement was performed according to the manufacturer's instruction using mouse anti-dsDNA ELISA kit (LBIS). The absorbance was measured using Ininite M Nano (TECAN).\n(§4) 4-μm kidney sections were stained with periodic acid-Schiff (PAS), Masson's Trichrome (MT), Periodic acid metenamine silver (PAM) or Hematoxylin and Eosin (HE) staining for histological analysis. The degree of glomerular lesions was evaluated using the following scoring system: 0=no lesion, 1=affecting up to 25% of the glomerulus, 2=affecting 25-50% of the glomerulus, 3=affecting 50-75% of the glomerulus, and 4=affecting 75-100%. At least 50 glomeruli per sample were measured for each analysis. An indirect immunoperoxidase method was used for immunohistochemistry. Briefly, after deparaffinization, antigen retrieval was performed with citrate buffer (pH6) or Tris-EDTA buffer (pH9 or pH6) using microwave or high temperature (95° C.). Endogenous peroxidase activity was quenched using 3% hydrogen peroxide; nonspecific protein binding was blocked using 2.5% normal horse serum (Vector Laboratories), and endogenous biotin activity was quenched using the Avidin/Biotin Blocking Kit (Vector Laboratories). When using mouse primary antibodies on mouse tissue, Klear mouse blocking reagent (Diagomics) was used to block endogenous mouse immunoglobulins. After blocking, the tissue sections were incubated with the primary antibodies overnight at 4° C. […]"}, "[2]": {"test_system": "MRL-lpr mice", "test": "MRL-lpr mice (lupus nephritis model) treated from 8 weeks old till death", "text": "as §1, §2, §3, §4"}, "[3]": {"test_system": "Tg26^HE mice", "test": "Tg26^HE mice (collapsing glomerulopathy model), vehicle or alpelisib for 8 weeks", "conditions": "8 weeks treatment", "method": "as §2, §3\n4-μm kidney sections were stained with periodic acid-Schiff (PAS), Masson's Trichrome (MT), Periodic acid metenamine silver (PAM) or Hematoxylin and Eosin (HE) staining for histological analysis. The degree of glomerular lesions was evaluated using the following scoring system: 0=no lesion, 1=affecting up to 25% of the glomerulus, 2=affecting 25-50% of the glomerulus, 3=affecting 50-75% of the glomerulus, and 4=affecting 75-100%. At least 50 glomeruli per sample were measured for each analysis. An indirect immunoperoxidase method was used for immunohistochemistry. Briefly, after deparaffinization, antigen retrieval was performed with citrate buffer (pH6) or Tris-EDTA buffer (pH9 or pH6) using microwave or high temperature (95° C.). Endogenous peroxidase activity was quenched using 3% hydrogen peroxide; nonspecific protein binding was blocked using 2.5% normal horse serum (Vector Laboratories), and endogenous biotin activity was quenched using the Avidin/Biotin Blocking Kit (Vector Laboratories). When using mouse primary antibodies on mouse tissue, Klear mouse blocking reagent (Diagomics) was used to block endogenous mouse immunoglobulins. After blocking, the tissue sections were incubated with the primary antibodies overnight at 4° C. The following primary antibodies were used: rabbit anti-Ki67 antibody (SP6; Thermo Fisher Scientific), rabbit anti-P-S6RP antibody (D68F8; Cell Signaling Technology), mouse anti-P-AKT (Ser473) antibody (587F11; Cell Signaling Technology), rabbit anti-P-AKT (Thr308) antibody (C31E5E; Cell Signaling Technology), mouse anti-S6RP antibody (54E2; Cell Signaling Technology), chicken anti-GFP antibody (Abcam), guinea pig anti-Nephrin antibody (GP-N2; Progen), rabbit anti-Podocin antibody (P0372; Sigma Aldrich), mouse anti-WTI antibody (6F-H2; DAKO). The corresponding secondary antibodies including anti-mouse IgG, anti-rabbit IgG, anti-guinea pig IgG, biotinylated anti-rabbit IgG (Vector Laboratories), and biotinylated anti-mouse IgG (Vector Laboratories) were applied. For Avidin/Biotin detection, an R.T.U. Vectastain Kit (Vector Laboratories) or streptavidin (Thermo Fisher Scientific) was used. The immunoreactive antigens sites were detected with hydrogen peroxide and diaminobenzidine. For frozen immunofluorescent staining, frozen tissue sections (4 μm) were briefly air dried and fixed in 50% methanol/50% acetone. The sections were then blocked with 2.5% normal horse serum and incubated with primary antibodies: guinea pig anti-Nephrin antibody (GP-N2; Progen) overnight at 4° C. The sections were then incubated at room temperature for 40 min with secondary antibodies: fluorescein isothiocyanate-conjugated (FITC) anti-mouse IgG (Sigma Aldrich), FITC anti-mouse IgM (BD Biosciences), or FITC anti-mouse C3 antibody (abcam). […]"}, "[4]": {"conditions": "4 weeks treatment, at sacrifice"}},
  "data": [
    {"smiles": "Cc1nc(NC(=O)N2CCC[C@H]2C(N)=O)sc1-c1ccnc(C(C)(C)C(F)(F)F)c1", "note": "[alpelisib, Alpelisib]", "values": [
      {"measurement": "anemia", "setting": "[1]; 4 weeks treatment", "result": "partial correction of anemia"},
      {"measurement": "glomerular AKT/mTOR pathway activation (P-S6RP)", "setting": "[1]; 4 weeks treatment", "result": "blunted"},
      {"measurement": "glomerular IgG, IgM and C3 deposits", "setting": "[1]; 4 weeks treatment", "result": "significantly reduced"},
      {"measurement": "level of dsDNA", "setting": "[1]; 4 weeks treatment", "result": "tendency to decrease"},
      {"measurement": "platelet count", "setting": "[1]; 4 weeks treatment", "result": "significant increase in platelet count"},
      {"measurement": "podocyte differentiation markers", "setting": "[1]; 4 weeks treatment", "result": "significantly improved"},
      {"measurement": "blood urea nitrogen levels", "setting": "[1]; [4]", "result": "lower blood urea nitrogen levels"},
      {"measurement": "kidney to body weight ratio", "setting": "[1]; [4]", "result": "significantly reduced"},
      {"measurement": "glomeruli, histological level", "setting": "[1]; 4 weeks treatment, vs vehicle", "result": "preserved glomeruli"},
      {"measurement": "kidney lesions (title of FIG. 4)", "setting": "[1]; Lupus Nephritis models (NZBWF1/J and MRL-lpr)", "result": "improves kidney lesions"},
      {"measurement": "spleen size", "setting": "[1]; both sham and uninephrectomized mice", "result": "significantly reduced"},
      {"measurement": "albuminuria (urinary albumin to creatinine ratio)", "setting": "[1]; females, uninephrectomy at 24 weeks, 4 weeks treatment, at sacrifice", "result": "significantly less albuminuria"},
      {"measurement": "Col1a and Col3a mRNA expression", "setting": "[1]; kidney cortex, qRT-PCR", "result": "reduced"},
      {"measurement": "TNFa mRNA expression", "setting": "[1]; kidney cortex, qRT-PCR", "result": "reduced"},
      {"measurement": "progression of glomerular lesions", "setting": "[1]; sacrifice vs kidney removed at uninephrectomy", "result": "remained stable"},
      {"measurement": "kidney to body weight ratio", "setting": "[2]; at sacrifice, vs vehicle", "result": "tendency to have a lower kidney to body weight ratio"},
      {"measurement": "survival / life expectancy (Kaplan-Meier)", "setting": "[2]; females, from 8 weeks old till death", "result": "significant extension of life expectancy"},
      {"measurement": "trajectory of albuminuria before and after treatment introduction", "setting": "[2]; from 8 weeks old", "result": "proteinuria improvement"},
      {"measurement": "glomerular lesions, kidney examination", "setting": "[2]; vs vehicle", "result": "no glomerular lesions"},
      {"measurement": "kidney function", "setting": "[2]; vs vehicle", "result": "improved kidney function"},
      {"measurement": "proteinuria (urinary albumin to creatinine ratio)", "setting": "[2]; vs vehicle", "result": "less proteinuria"},
      {"measurement": "albuminuria", "setting": "[3]; 4 weeks old, vs vehicle", "result": "lower albuminuria"},
      {"measurement": "AKT/mTOR pathway", "setting": "[3]", "result": "profound AKT/mTOR pathway inhibition"},
      {"measurement": "kidney function", "setting": "[3]", "result": "not significantly improved"},
      {"measurement": "expression of podocyte differentiation markers", "setting": "[3]; vs vehicle", "result": "higher expression of podocyte differentiation markers"},
      {"measurement": "fibrotic markers Col1a and Col3a", "setting": "[3]; vs vehicle", "result": "reduced expression in fibrotic markers"},
      {"measurement": "glomerular lesions", "setting": "[3]; vs vehicle", "result": "less severe glomerular lesions"},
      {"measurement": "inflammatory marker Tnfa", "setting": "[3]; vs vehicle", "result": "lower expression"},
      {"measurement": "kidney volume", "setting": "[3]; vs vehicle", "result": "reduction in kidney volume"},
      {"measurement": "tubular injury markers Lcn2 and KIM1", "setting": "[3]; vs vehicle", "result": "lower expression of tubular injury markers"}
    ]}
  ]
}
